Data as given in ChEMBL document CHEMBL3885861, “Open TG-GATES”.

Species: Rattus norvegicus
Assay: Open TG-GATES - Regimen: Single
Type: toxicity, organism-based, Sprague-Dawley
Parameters: regimen Single, gender Male, age 6 weeks
Conditions: in vivo, po, 150 mg/kg, route gavage, dose level Middle; for APTT / Bas / Eos / Fbg / Hb / Ht / Lym / MCH / MCHC / MCV / Mono / Neu / PT / Plat / RBC / Ret / WBC: tissue Blood; for KIDNEY_L / KIDNEY_R / KIDNEY_TOTAL: tissue Kidney; for LIVER: tissue Liver; for A/G / ALP / ALT / AST / BUN / CRE / Ca / Cl / DBIL / GLC / IP / K / LDH / Na / PL / RALB / TBIL / TC / TG / TP / gamma-GTP: tissue Plasma

With `CN1C(=O)CCS(=O)(=O)C1c1ccc(Cl)cc1` (configuration not stated) [CHLORMEZANONE] the TERMINAL_BW (3 h) was 230 g, the APTT (3 h) was 15.9 s and the Bas (3 h) was 0%. The Eos (3 h) was 1%, the Fbg (3 h) was 314.4 mg/dL and the Hb (3 h) was 13.5 g/dL. The Ht (3 h) was 39.4%, the Lym (3 h) was 77% and the MCH (3 h) was 21.7 pg. The MCHC (3 h) was 34.1%, the MCV (3 h) was 63.6 fL and the Mono (3 h) was 2.8%. The Neu (3 h) was 18.4%, the PT (3 h) was 13.1 s and the Plat (3 h) was 123.1 x10_4/uL. For the same compound, the RBC (3 h) was 620.2 x10_4/ul, the Ret (3 h) was 7.9% and the WBC (3 h) was 84.3 x10_2/uL. It also gave a KIDNEY_L (3 h) of 1 g, a KIDNEY_R (3 h) of 1 g and a KIDNEY_TOTAL (3 h) of 1.9 g. It also gave an LIVER (3 h) of 10.6 g, an A/G (3 h) of 0.9 and an ALP (3 h) of 1400.8 IU/L. It also gave an ALT (3 h) of 49.6 IU/L, an AST (3 h) of 75.6 IU/L and a BUN (3 h) of 11.6 mg/dL. For the same compound, the CRE (3 h) was 0.2 mg/dL, the Ca (3 h) was 11.6 mg/dL and the Cl (3 h) was 104.2 meq/L. It also gave a DBIL (3 h) of 0.018 mg/dL, a GLC (3 h) of 182.2 mg/dL and an IP (3 h) of 9.5 mg/dL. It also gave a K (3 h) of 4.3 meq/L, an LDH (3 h) of 56.8 IU/L and a Na (3 h) of 140.6 meq/L. It also gave a PL (3 h) of 157.6 mg/dL, an RALB (3 h) of 2.6 g/dL and a TBIL (3 h) of 0.034 mg/dL. It also gave a TC (3 h) of 87 mg/dL, a TG (3 h) of 95.6 mg/dL and a TP (3 h) of 5.6 g/dL. The gamma-GTP (3 h) was 1 IU/L, the TERMINAL_BW (6 h) was 229.6 g and the APTT (6 h) was 17.8 s. For the same compound, the Bas (6 h) was 0%, the Eos (6 h) was 0.6% and the Fbg (6 h) was 295 mg/dL. For the same compound, the Hb (6 h) was 13.8 g/dL, the Ht (6 h) was 41.1% and the Lym (6 h) was 77.8%. It also gave an MCH (6 h) of 22.1 pg, an MCHC (6 h) of 33.6% and an MCV (6 h) of 65.8 fL. For the same compound, the Mono (6 h) was 3.8%, the Neu (6 h) was 16.8% and the PT (6 h) was 13.6 s. For the same compound, the Plat (6 h) was 119.1 x10_4/uL, the RBC (6 h) was 624.4 x10_4/ul and the Ret (6 h) was 8.5%. For the same compound, the WBC (6 h) was 70.9 x10_2/uL, the KIDNEY_L (6 h) was 1 g and the KIDNEY_R (6 h) was 1 g. The KIDNEY_TOTAL (6 h) was 2 g, the LIVER (6 h) was 10.1 g and the A/G (6 h) was 0.9. For the same compound, the ALP (6 h) was 1441.2 IU/L, the ALT (6 h) was 41.6 IU/L and the AST (6 h) was 71.8 IU/L. It also gave a BUN (6 h) of 9.2 mg/dL, a CRE (6 h) of 0.2 mg/dL and a Ca (6 h) of 11.7 mg/dL. For the same compound, the Cl (6 h) was 105.6 meq/L, the DBIL (6 h) was 0.014 mg/dL and the GLC (6 h) was 184.2 mg/dL. For the same compound, the IP (6 h) was 11.2 mg/dL, the K (6 h) was 4.5 meq/L and the LDH (6 h) was 61.4 IU/L. The Na (6 h) was 142.8 meq/L, the PL (6 h) was 152 mg/dL and the RALB (6 h) was 2.7 g/dL. For the same compound, the TBIL (6 h) was 0.038 mg/dL, the TC (6 h) was 76 mg/dL and the TG (6 h) was 57.2 mg/dL. For the same compound, the TP (6 h) was 5.7 g/dL, the gamma-GTP (6 h) was 1.6 IU/L and the TERMINAL_BW (9 h) was 228.1 g. It also gave an APTT (9 h) of 14 s, a Bas (9 h) of 0% and an Eos (9 h) of 0.6%. It also gave a Fbg (9 h) of 329.4 mg/dL, a Hb (9 h) of 13.1 g/dL and a Ht (9 h) of 38.8%. It also gave a Lym (9 h) of 74.2%, an MCH (9 h) of 21.8 pg and an MCHC (9 h) of 33.8%. The MCV (9 h) was 64.4 fL, the Mono (9 h) was 2.8% and the Neu (9 h) was 21.2%. The PT (9 h) was 13.3 s, the Plat (9 h) was 118.2 x10_4/uL and the RBC (9 h) was 603 x10_4/ul. For the same compound, the Ret (9 h) was 8%, the WBC (9 h) was 89.8 x10_2/uL and the KIDNEY_L (9 h) was 1 g. For the same compound, the KIDNEY_R (9 h) was 1 g, the KIDNEY_TOTAL (9 h) was 1.9 g and the LIVER (9 h) was 9 g. For the same compound, the A/G (9 h) was 0.9, the ALP (9 h) was 1520.8 IU/L and the ALT (9 h) was 38.6 IU/L. The AST (9 h) was 70.6 IU/L, the BUN (9 h) was 9.8 mg/dL and the CRE (9 h) was 0.2 mg/dL. The Ca (9 h) was 11.3 mg/dL, the Cl (9 h) was 105 meq/L and the DBIL (9 h) was 0.02 mg/dL. For the same compound, the GLC (9 h) was 194.6 mg/dL, the IP (9 h) was 11.2 mg/dL and the K (9 h) was 4 meq/L. It also gave an LDH (9 h) of 55.8 IU/L, a Na (9 h) of 142.8 meq/L and a PL (9 h) of 150.2 mg/dL. It also gave an RALB (9 h) of 2.6 g/dL, a TBIL (9 h) of 0.04 mg/dL and a TC (9 h) of 78.4 mg/dL. For the same compound, the TG (9 h) was 67.2 mg/dL, the TP (9 h) was 5.5 g/dL and the gamma-GTP (9 h) was 1.4 IU/L. It also gave a TERMINAL_BW (24 h) of 227.1 g, an APTT (24 h) of 17.4 s and a Bas (24 h) of 0%. For the same compound, the Eos (24 h) was 1%, the Fbg (24 h) was 271.6 mg/dL and the Hb (24 h) was 13.4 g/dL. The Ht (24 h) was 39.4%, the Lym (24 h) was 77% and the MCH (24 h) was 21.9 pg. It also gave an MCHC (24 h) of 34.1%, an MCV (24 h) of 64.2 fL and a Mono (24 h) of 3.4%. The Neu (24 h) was 17.8%, the PT (24 h) was 13.3 s and the Plat (24 h) was 123.4 x10_4/uL. It also gave an RBC (24 h) of 615.2 x10_4/ul, a Ret (24 h) of 7.5% and a WBC (24 h) of 94.1 x10_2/uL. It also gave a KIDNEY_L (24 h) of 1 g, a KIDNEY_R (24 h) of 1 g and a KIDNEY_TOTAL (24 h) of 2 g. It also gave an LIVER (24 h) of 10.9 g, an A/G (24 h) of 0.9 and an ALP (24 h) of 1673.6 IU/L. The ALT (24 h) was 50.4 IU/L, the AST (24 h) was 82.4 IU/L and the BUN (24 h) was 15.6 mg/dL. For the same compound, the CRE (24 h) was 0.2 mg/dL, the Ca (24 h) was 11.4 mg/dL and the Cl (24 h) was 105.4 meq/L. The DBIL (24 h) was 0.022 mg/dL, the GLC (24 h) was 192 mg/dL and the IP (24 h) was 7.6 mg/dL. For the same compound, the K (24 h) was 4.2 meq/L, the LDH (24 h) was 69.4 IU/L and the Na (24 h) was 142 meq/L. The PL (24 h) was 138.4 mg/dL, the RALB (24 h) was 2.6 g/dL and the TBIL (24 h) was 0.028 mg/dL. It also gave a TC (24 h) of 79.8 mg/dL, a TG (24 h) of 119 mg/dL and a TP (24 h) of 5.6 g/dL. For the same compound, the gamma-GTP (24 h) was 1 IU/L.
